Measured values taken from patent publication US8192962B2, “Processes for detecting toxic substances” (Daikin Industries, Ltd., priority 2001, dated 2012).

Tested on: Genes belonging to other category
Test: DNA chip mRNA expression in yeast, genes belonging to other category (Table 9)
Assay type: cell-based, Saccharomyces cerevisiae S288C
Experimental: Yeast (Saccharomyces cerevisiae S288C (α SUC2mal mel gap2 CUP1)) were incubated at 25° C. on YPD medium (yeast extract 1%, polypepton 2%, glucose 2%). One of toxic chemical substances was added to the cells at logarithmic growth phase, and the cells were further incubated for two hours. Cells were cultured without any chemical substance in the same condition, and were used as control. Concentrations of the chemical substances were defined to inhibit the growth of the yeast but not lead to death.
After completion of the incubation, the culture was centrifuged to collect the cells. To the cells, sodium acetate buffer (50 mM sodium acetate, 10 mM EDTA, 1% SDS) was added, and the mixture was shaken at 65° C. for five minutes, followed by returning to room temperature, and obtaining the supernatant, of which the procedures were repeated two times. To the supernatant, ½ amount of a solution of phenol/chloroform was added, and the mixture was centrifuged to give a supernatant, which was added with an equal amount of chloroform, and the mixture was centrifuged to give a supernatant. To the supernatant, an equal amount of isopropanol containing 0.3 M sodium acetate was added, and the mixture was allowed to stand at room temperature for 30 minutes, after which the mixture was centrifuged to give a sediment of the whole RNAs. Seventy % ethanol was added to the sediment, and the mixture was again centrifuged to give a sediment, which was then dried and dissolved in water. mRNA was isolated from the whole RNAs as followings. In view of the fact that a poly A chain is attached to the 3′ terminus of mRNA, a polynucleotide having a poly T structure which was immobilized on the surface of latex beads was used to trap the mRNA, and then the mRNA was washed and eluted with spine column (Oligotex-dT30<Super>mRNA Purification Kit, Takara). Reverse transcription of the mRNA was conducted with a reverse transcriptase (Super Script II Reverse Transcriptase; catalogue No. 18064-014, GibcoBRL) using fluorescence-labeled nucleotides to give cDNAs that were introduced with Cy3-dUTP or Cy5-dUTP during the reverse transcription.
The labeled cDNAs were dissolved in TE buffer (10mM Tris-HCl/1 mM EDTA, pH8.0), and the solution was dropped on the DNA chip containing the whole genes of yeast (DNA Chip Research Inc. Japan) so that the cDNAs were hybridized on the DNA chip at 65° C. for over 12 hours. The fluoresces intensity of the DNA chip was read with a scanner, and the ratio relative to the fluorescence intensity resulting from the absence of chemical substance was estimated as the following, which is shown in Tables 1 to 9: […]

With `Oc1cc(Cl)c(Cl)cc1Cl` [(6), 2,4,5-trichlorophenol] the “The level of expressed mRNA in the presence of chemical substance/The level of expressed mRNA in the absence of chemical substance” value (yeast gene YER039C) was 1.6, the “The level of expressed mRNA in the presence of chemical substance/The level of expressed mRNA in the absence of chemical substance” value (yeast gene YER078C) was 1.4 and the “The level of expressed mRNA in the presence of chemical substance/The level of expressed mRNA in the absence of chemical substance” value (yeast gene YER094C) was 1.1. For the same molecule, the “The level of expressed mRNA in the presence of chemical substance/The level of expressed mRNA in the absence of chemical substance” value (yeast gene YER107C) was 2.5, the “The level of expressed mRNA in the presence of chemical substance/The level of expressed mRNA in the absence of chemical substance” value (yeast gene YER130C) was 2.7 and the “The level of expressed mRNA in the presence of chemical substance/The level of expressed mRNA in the absence of chemical substance” value (yeast gene YFL022C) was 0.9. For the same molecule, the “The level of expressed mRNA in the presence of chemical substance/The level of expressed mRNA in the absence of chemical substance” value (yeast gene YFL028C) was 1.7, the “The level of expressed mRNA in the presence of chemical substance/The level of expressed mRNA in the absence of chemical substance” value (yeast gene YFL038C) was 1.3 and the “The level of expressed mRNA in the presence of chemical substance/The level of expressed mRNA in the absence of chemical substance” value (yeast gene YFL043C) was 1.8. The “The level of expressed mRNA in the presence of chemical substance/The level of expressed mRNA in the absence of chemical substance” value (yeast gene YFR051C) was 0.2, the “The level of expressed mRNA in the presence of chemical substance/The level of expressed mRNA in the absence of chemical substance” value (yeast gene YGL056C) was 0.4 and the “The level of expressed mRNA in the presence of chemical substance/The level of expressed mRNA in the absence of chemical substance” value (yeast gene YGL093W) was 1.0. For the same molecule, the “The level of expressed mRNA in the presence of chemical substance/The level of expressed mRNA in the absence of chemical substance” value (yeast gene YGL150C) was 1.1, the “The level of expressed mRNA in the presence of chemical substance/The level of expressed mRNA in the absence of chemical substance” value (yeast gene YGL158W) was 0.4 and the “The level of expressed mRNA in the presence of chemical substance/The level of expressed mRNA in the absence of chemical substance” value (yeast gene YGL166W) was 1.0. For the same molecule, the “The level of expressed mRNA in the presence of chemical substance/The level of expressed mRNA in the absence of chemical substance” value (yeast gene YGL229C) was 2.2, the “The level of expressed mRNA in the presence of chemical substance/The level of expressed mRNA in the absence of chemical substance” value (yeast gene YGR136W) was 1.1 and the “The level of expressed mRNA in the presence of chemical substance/The level of expressed mRNA in the absence of chemical substance” value (yeast gene YGR189C) was 0.5. The “The level of expressed mRNA in the presence of chemical substance/The level of expressed mRNA in the absence of chemical substance” value (yeast gene YGR213C) was 4.1, the “The level of expressed mRNA in the presence of chemical substance/The level of expressed mRNA in the absence of chemical substance” value (yeast gene YGR253C) was 1.4 and the “The level of expressed mRNA in the presence of chemical substance/The level of expressed mRNA in the absence of chemical substance” value (yeast gene YGR257C) was 2.1. The “The level of expressed mRNA in the presence of chemical substance/The level of expressed mRNA in the absence of chemical substance” value (yeast gene YHR004C) was 2.0, the “The level of expressed mRNA in the presence of chemical substance/The level of expressed mRNA in the absence of chemical substance” value (yeast gene YHR027C) was 0.4 and the “The level of expressed mRNA in the presence of chemical substance/The level of expressed mRNA in the absence of chemical substance” value (yeast gene YHR028C) was 0.9. The “The level of expressed mRNA in the presence of chemical substance/The level of expressed mRNA in the absence of chemical substance” value (yeast gene YHR071W) was 2.0, the “The level of expressed mRNA in the presence of chemical substance/The level of expressed mRNA in the absence of chemical substance” value (yeast gene YHR082C) was 0.8 and the “The level of expressed mRNA in the presence of chemical substance/The level of expressed mRNA in the absence of chemical substance” value (yeast gene YHR136C) was 1.4. For the same molecule, the “The level of expressed mRNA in the presence of chemical substance/The level of expressed mRNA in the absence of chemical substance” value (yeast gene YHR139C) was 1.9, the “The level of expressed mRNA in the presence of chemical substance/The level of expressed mRNA in the absence of chemical substance” value (yeast gene YHR142W) was 1.2 and the “The level of expressed mRNA in the presence of chemical substance/The level of expressed mRNA in the absence of chemical substance” value (yeast gene YHR160C) was 1.0. The “The level of expressed mRNA in the presence of chemical substance/The level of expressed mRNA in the absence of chemical substance” value (yeast gene YHR166C) was 1.8, the “The level of expressed mRNA in the presence of chemical substance/The level of expressed mRNA in the absence of chemical substance” value (yeast gene YHR205W) was 1.0 and the “The level of expressed mRNA in the presence of chemical substance/The level of expressed mRNA in the absence of chemical substance” value (yeast gene YIL015W) was 0.4. The “The level of expressed mRNA in the presence of chemical substance/The level of expressed mRNA in the absence of chemical substance” value (yeast gene YIL075C) was 0.8, the “The level of expressed mRNA in the presence of chemical substance/The level of expressed mRNA in the absence of chemical substance” value (yeast gene YIL123W) was 0.5 and the “The level of expressed mRNA in the presence of chemical substance/The level of expressed mRNA in the absence of chemical substance” value (yeast gene YIL129C) was 0.3. For the same molecule, the “The level of expressed mRNA in the presence of chemical substance/The level of expressed mRNA in the absence of chemical substance” value (yeast gene YIL140W) was 0.5, the “The level of expressed mRNA in the presence of chemical substance/The level of expressed mRNA in the absence of chemical substance” value (yeast gene YIL142W) was 1.1 and the “The level of expressed mRNA in the presence of chemical substance/The level of expressed mRNA in the absence of chemical substance” value (yeast gene YIR009W) was 1.4. For the same molecule, the “The level of expressed mRNA in the presence of chemical substance/The level of expressed mRNA in the absence of chemical substance” value (yeast gene YJL073W) was 2.0, the “The level of expressed mRNA in the presence of chemical substance/The level of expressed mRNA in the absence of chemical substance” value (yeast gene YJL089W) was 1.6 and the “The level of expressed mRNA in the presence of chemical substance/The level of expressed mRNA in the absence of chemical substance” value (yeast gene YJL116C) was 3.4.
